Measured values: patent publication US20110118274A1, “PROTEASOME INHIBITORS AND THEIR USE IN TREATING PATHOGEN INFECTION AND CANCER” (CORNELL RESEARCH FOUNDATION, INC., priority 2007, published 2011)
Read-outs that look alike come from different tables or passages of the source.

How the values were obtained:
Mtb proteasome [1] = molecular target: T1, Mtb proteasome (Mycobacterium tuberculosis, UniProt P9WHT9); assay: Preliminary inhibition studies of Mtb proteasome with oligopeptide substrates; format: biochemical
T1 construct: made in house; host or cells: E. coli
T1 sequence (P9WHT9 58-291): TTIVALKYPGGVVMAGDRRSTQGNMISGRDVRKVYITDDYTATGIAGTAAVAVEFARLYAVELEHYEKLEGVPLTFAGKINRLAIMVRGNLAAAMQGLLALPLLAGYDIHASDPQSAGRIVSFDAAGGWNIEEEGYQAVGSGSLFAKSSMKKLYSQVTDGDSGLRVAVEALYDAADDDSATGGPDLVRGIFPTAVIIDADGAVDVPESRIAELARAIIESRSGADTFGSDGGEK
T1 sequence (P9WHU1 9-248 partner, looked up, natural form): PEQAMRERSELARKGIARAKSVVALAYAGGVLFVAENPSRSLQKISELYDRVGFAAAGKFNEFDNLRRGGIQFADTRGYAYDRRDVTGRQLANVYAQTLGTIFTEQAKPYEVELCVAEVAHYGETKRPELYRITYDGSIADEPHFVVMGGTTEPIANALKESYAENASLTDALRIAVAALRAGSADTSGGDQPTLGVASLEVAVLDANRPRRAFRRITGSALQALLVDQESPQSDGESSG

Mtb proteasome [2] = molecular target: T1, Mtb proteasome; format: biochemical; conditions: dialysis 18 hours against inhibitor-free buffer
[3] = tested on: human monocyte-derived macrophages; assay: Cytotoxicity, human monocyte-derived macrophages; format: cell-based; conditions: 7 days
Protocol: (§1) Given that proteasome-inhibiting oxathiazol-2ones killed mycobacteria, their impact on the survival of mammalian cells was tested. […] In contrast, less than 10% of Vero cells remained viable after 4-day exposure to 25 nM bortezomib. Finally, because most Mtb in nature resides in human macrophages, we exposed human monocyte-derived macrophages (mostly multinucleated giant cells) to 100 μM GL3, GL5 or GL6 for 7 days.

α-chymotrypsin = α-chymotrypsin (Bos taurus, UniProt P00766); assay: Inhibition of α-chymotrypsin; format: biochemical, mammalian
Description: The unique inactivation mechanism of oxathiazol-2-ones led to an examination of selectivity of these compounds among non-proteasomal proteases, such as chymotrypsin, trypsin, cathepsin B, and matrix metalloproteinase (MMP)-2, representatives of the serine-, cysteine-, and matrix metalloproteinase classes. […] In contrast to the proteasome's N-terminal Thr active site residue, chymotrypsin's active site Ser residue is positioned internally. Given the lack of a terminal NH2 group, the acyl-enzyme intermediate formed by reaction of oxathiazol-2-one with the γ-OH of chymotrypsin's active site Ser can undergo either aqueous hydrolysis to reactivate the enzyme or regeneration of oxathiazol-2-one by the released —OH or —SH group attacking —CO-γO-Ser.

[4] = tested on: Vero monkey kidney epithelial cells; assay: Cytotoxicity, Vero cells; format: cell-based; conditions: for cytotoxicity: up to 50 μM, 4 days
Protocol: as §1

Mtb PrcAB-OG [5] = molecular target: T2, Mtb PrcAB-OG (Mycobacterium tuberculosis, UniProt P9WHT9); assay: biochemical; format: biochemical
T2 construct: made in house; host or cells: E. coli
Target sequence in this assay (P9WHT9 58-291): as the sequence (P9WHT9 58-291) above

Mtb PrcAB-OG [6] = assay: biochemical; format: biochemical, Mycobacterium tuberculosis
[7] = molecular target: human 20S-β5 (Hu20S PA28) (Homo sapiens, UniProt P28074); assay: Kinetics of inhibition of human 20S proteasome β5 site in presence of PA28; format: biochemical
[8] = molecular target: proteasome in M. bovis BCG (Mycobacterium bovis, UniProt A1KKF3); assay: cell-based; conditions: read-out: intrabacterial proteasome inhibition
Sequence of proteasome in M. bovis BCG (A1KKF3 whole entry, looked up): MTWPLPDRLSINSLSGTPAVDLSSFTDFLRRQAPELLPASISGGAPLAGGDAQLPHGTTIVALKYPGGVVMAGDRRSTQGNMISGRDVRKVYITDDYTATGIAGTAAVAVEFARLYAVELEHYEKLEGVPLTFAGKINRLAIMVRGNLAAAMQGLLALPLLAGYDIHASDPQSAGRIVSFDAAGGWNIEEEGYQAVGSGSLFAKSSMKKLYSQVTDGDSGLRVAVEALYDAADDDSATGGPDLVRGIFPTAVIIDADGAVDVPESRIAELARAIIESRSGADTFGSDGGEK

Mtb H37Rv = assay: Mycobactericidal activity against Mtb (CFU); format: cell-based, Mycobacterium tuberculosis
human lung fibroblasts = assay: Cytotoxicity, human lung fibroblasts; format: cell-based; conditions: up to 50 μM, 4 days
Protocol: as §1

M. bovis BCG = assay: microbe, parasite or virus in culture; format: cell-based, Mycobacterium bovis BCG; conditions: for reduction of colony forming units (CFU): cells exposed to DETA-NO 50 μM; for log reduction at 25 µM: Mycobacterium tuberculosis variant bovis BCG, BCG, 96 h, read-out: BCG killing (25 μM)
[9] = tested on: mouse macrophage-like RAW264.7 cells; assay: Cytotoxicity, RAW264.7 cells; format: cell-based; conditions: up to 50 μM, 4 days
Protocol: as §1

human skin fibroblasts = assay: Cytotoxicity, human skin fibroblasts; format: cell-based; conditions: up to 50 μM, 4 days
Protocol: as §1

Mtb PrcAB-OG [10] = molecular target: T2, Mtb PrcAB-OG; format: biochemical
Target sequence in this assay (P9WHT9 58-291): as the sequence (P9WHT9 58-291) above
Target sequence in this assay (P9WHU1 9-248 partner, looked up, natural form): as the sequence (P9WHU1 9-248 partner, looked up, natural form) above

human proteasome = human proteasome (Homo sapiens, UniProt P28072+P28074+Q99436); assay: Preliminary inhibition studies of human proteasome with oligopeptide substrates
[11] = Table 1, read-out: kobs/[I] Mtb-OG
[12] = 50 μM, 4 days, Mtb exposed overnight to 100 μM DETA
[13] = 50 μM, 4 days, Mtb exposed overnight to 100 μM DETA-NO
[14] = Mycobacterium tuberculosis, H37RV, 96 h; read-out: Mtb killing (50 μM)

With `O=c1oc(-c2cnccn2)ns1` [5-(pyrazin-2-yl)-1,3,4-oxathiazol-2-one] the “inhibition of Mtb proteasome” value (Mtb proteasome [1]) was “found to inhibit the Mtb proteasome, albeit less potently than GL5”.
For `C[C@@]12OC(=O)[C@]1([C@@H](O)[C@@H]1C=CCCC1)NC(=O)[C@@H]2CCCl` [NPI-0052], the “activity recovered after dialysis” value (Mtb proteasome [2]) was “did not restore the activity”.
With `CSc1sc(C)cc1-c1nsc(=O)o1` [GL5] the “morphologic sign of cytotoxicity” value ([3]; 100 μM) was “no morphologic sign of cytotoxicity”, the IC50 (α-chymotrypsin) was 64 nM and the Ki (α-chymotrypsin; reversible, time-independent inhibition) was 64 nM. For the same compound, the cytotoxicity [4] was “no evident cytotoxicity”, the “Hill coefficient (Mtb PrcAB-OG)” value (Mtb PrcAB-OG [5]) was 1 and the “effect of substrate concentration on rate of inactivation” value (Mtb PrcAB-OG [5]) was “Increasing substrate concentration reduced the rate of proteasome inactivation”. The kinact/K (Mtb PrcAB-OG [5]; Mtb PrcAB-OG, corrected for substrate competition, […]) was 625 ± 12.2^b M^−1s^−1, the kinact/KI (Mtb PrcAB-OG [5]; [11]) was 376 M⁻¹ s⁻¹ and the kinact/KI (Mtb PrcAB-OG [5]; corrected for substrate competition, read-out: kinact/K for GL5 vs Mtb proteasome) was 624 ± 12.2 M⁻¹ s⁻¹. For the same compound, the kinact/KI (Mtb PrcAB-OG [5]; slope of kobs vs [I], not corrected for substrate competition, read-out: apparent value of kobs/[I]) was 476 ± 9.3 M⁻¹ s⁻¹, the “improvement in species selectivity ratio relative to bortezomib” value (Mtb PrcAB-OG [6]) was roughly 1160 fold and the “selectivity toward Mtb proteasome over human β5 proteasome subunit” value (Mtb PrcAB-OG [6]) was 64 fold. The Ratio (Mtb PrcAB-OG [6]; kobs/[I] Mtb-OG versus Hu20S PA28) was 1033, the “reversibility of inactivation of human proteasome β5 subunit” value ([7]; plots of kobs vs [I] not passing through origin) was “reversible” and the kinact/KI ([7]; read-out: kobs/[I] H20S-β5) was 9.8 ± 1.3 M⁻¹ s⁻¹. For the same compound, the kinact/KI ([7]; read-out: kobs/[I] Hu20S PA28) was 0.4 M⁻¹ s⁻¹, the inhibition at 10 µM [8] was no less than 50% and the “reduction of number of CFU” value (Mtb H37Rv; [12]) was “not if they had been exposed to DETA”. The “reduction of number of CFU” value (Mtb H37Rv; [13]) was 47 fold, the log reduction at 50 µM (Mtb H37Rv; Mycobacterium tuberculosis, H37RV, 96 h, read-out: Mtb killing (50 μM)) was 1.4 and the cytotoxicity (human lung fibroblasts) was “no evident cytotoxicity”. For the same compound, the “activity recovered after dialysis” value (Mtb proteasome [2]) was “did not restore the activity”, the “reduction of colony forming units (CFU)” value (M. bovis BCG; 25 μM, 4 days) was 400 fold and the “reduction of colony forming units (CFU)” value (M. bovis BCG; 50 μM, 4 days) was “more than 2000 fold”. The log reduction at 25 µM (M. bovis BCG) was greater than 2, the “killing of BCG” value (M. bovis BCG; alone and with DETA-NO 50 μM, 4 days) was “able to kill BCG” and the cytotoxicity [9] was “no evident cytotoxicity”. The cytotoxicity (human skin fibroblasts) was “no evident cytotoxicity”.
`O=c1oc(-c2ccccc2)ns1` [HT1146] was tested, and the IC50 (α-chymotrypsin) was 10000 nM, the kinact/KI (Mtb PrcAB-OG [5]; [11]) was 409 M⁻¹ s⁻¹ and the kinact/KI ([7]; read-out: kobs/[I] Hu20S PA28) was 31.3 M⁻¹ s⁻¹.
In the case of `Cc1cc(-c2nsc(=O)o2)c(S(C)(=O)=O)s1` [GL6], the “morphologic sign of cytotoxicity” value ([3]; 100 μM) is reported as “no morphologic sign of cytotoxicity”, the cytotoxicity [4] is reported as “no evident cytotoxicity” and the “prevention of β-casein degradation by Mtb proteasome” value (Mtb PrcAB-OG [10]) is reported as “but not GL6”. For the same compound, the “reduction of number of CFU” value (Mtb H37Rv; [12]) was “did not lead to a reduction of CFU”, the “reduction of number of CFU” value (Mtb H37Rv; [13]) was “did not lead to a reduction of CFU” and the cytotoxicity (human lung fibroblasts) was “no evident cytotoxicity”. The “inhibition of Mtb proteasome” value (Mtb proteasome [1]) was “inhibited neither”, the “inhibition of human proteasome” value (human proteasome) was “inhibited neither” and the cytotoxicity [9] was “no evident cytotoxicity”. The cytotoxicity (human skin fibroblasts) was “no evident cytotoxicity”.
Compound `Cc1sc(-c2nsc(=O)o2)cc1[N+](=O)[O-]` [HT1171] has a kinact/KI (Mtb PrcAB-OG [5]; [11]) of 3490 M⁻¹ s⁻¹.
For `O=c1oc(-c2cccc(F)c2)ns1` [HT1071], the IC50 (α-chymotrypsin) was 2670 nM, the kinact/KI (Mtb PrcAB-OG [5]; read-out: kobs/[I] Mtb-OG) was 1060 M⁻¹ s⁻¹ and the kinact/KI ([7]; read-out: kobs/[I] Hu20S PA28) was 31.3 M⁻¹ s⁻¹. It also gave a log reduction at 50 µM (Mtb H37Rv; [14]) of 2.2 and a log reduction at 25 µM (M. bovis BCG) greater than 3.
`O=c1oc(-c2cccc(C(F)(F)F)c2)ns1` [HT1086] gave an IC50 (α-chymotrypsin) of 48100 nM, a kinact/KI (Mtb PrcAB-OG [5]; [11]) of 155 M⁻¹ s⁻¹ and a kinact/KI ([7]; read-out: kobs/[I] Hu20S PA28) of 0.4 M⁻¹ s⁻¹.
Work on `O=c1oc(-c2cccc([N+](=O)[O-])c2)ns1` [HT1042] yielded an IC50 (α-chymotrypsin) of 3140 nM, a kinact/KI (Mtb PrcAB-OG [5]; read-out: kobs/[I] Mtb-OG) of 729 M⁻¹ s⁻¹ and a kinact/KI ([7]; read-out: kobs/[I] Hu20S PA28) of 10.3 M⁻¹ s⁻¹. It also gave a log reduction at 50 µM (Mtb H37Rv; [14]) of 1.7 and a log reduction at 25 µM (M. bovis BCG) of 2.
For `CC(C)C[C@H](NC(=O)[C@H](Cc1ccccc1)NC(=O)c1cnccn1)B(O)O` [bortezomib, reference compound], the “morphologic sign of cytotoxicity” value ([3]; 0.5 μM) was “rounded up or appeared to disintegrate”, the “Vero cells remaining viable” value ([4]; 25 nM, 4-day exposure) was “less than 10%” and the “activity recovered after dialysis” value (Mtb proteasome [2]) was 70%.
